Literature values as cited in US6316027A, “Fast-dissolving dosage forms for dopamine agonists” (priority 1995, dated 2001).

How the values were obtained:
[1] = not given; remark: listed apart in the source
[2] = acidic environment
[3] = not given; remark: listed apart in the source
[4] = sub-lingual tablets, prolonged use

SMILES | incidence of malignant melanoma (patients undergoing treatment with levodopa) | involuntary movements on prolonged use (prolonged use) | fraction entering the brain ([1]; in vivo) | absorption from the small intestine ([1]; oral) | chemical stability [2] | nasal side effects ([3]; intranasal) | presystemic metabolism (first pass effect) ([3]; oral tablets, small intestine and/or liver) | blood urea nitrogen ([3]; oral, long-term studies, stopped after 7-10 days) | buccal mucosal ulceration, share of patients [3, 4] | stomatitis [3, 4] | dopamine agonist side effects ([3]; subcutaneous)
N[C@@H](Cc1ccc(O)c(O)c1)C(=O)O [levodopa] | increased incidence of malignant melanoma | involuntary choreiform movements | less than 1% | well absorbed from the small intestine | – | – | – | – | – | – | –
CN1CCc2cccc3c2[C@H]1Cc1ccc(O)c(O)c1-3 [apomorphine, 5,6,6a,7-tetrahydro-6-methyl-4H-dibenzo quinoline-10; 11-diol] | – | – | – | – | optimal chemical stability in an acidic environment | transient nasal blockage, burning sensation and swollen nose and lips | extensive presystemic metabolism | unexplained rises in blood urea nitrogen | half the patients | severe stomatitis | nausea and vomiting
